Results as given in patent publication US20230131899A1, “INHIBITORS OF MICROBIALLY INDUCED AMYLOID” (Axial Therapeutics, Inc., priority 2020, published 2023).
Read-outs that look alike come from different tables or passages of the source.

Molecular target: T1, E. coli CsgA (Escherichia coli, UniProt P28307)
T1 construct: made in house; host or cells: E. coli NEB 3016 slyD::kan, pET11d
Assay: In vitro ThioflavinT assay of CsgA aggregation (CsgA ThT Assay)
Type: biochemical
Conditions: for remaining activity at 25 µM: compound 25 μM; for remaining activity at 100 µM: compound 100 μM
Method in brief: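 Purified C-terminal His-tagged CsgA, monomerised by desalting and 30-kDa filtration, at 2-20 μM with 20-40 μM ThT in 50 mM potassium phosphate pH 7.3, 1% DMSO, compounds 3.125-200 uM; room temperature, fluorescence (ex 438/em 495 nm) read every 15 min. Background-subtracted signal expressed as percent inhibition versus vehicle at 6-6.5 or 8-9 h, or as percent control AUC.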

[1] = read-out: CsgA ThT Assay (10 μM CsgA) % Control AUC at 1005 minutes, 25 μM (activity range), CsgA 10 μM, black plates, 1005 minutes, class symbol
[2] = read-out: CsgA ThT Assay (10 μM CsgA) % Control AUC at 1005 minutes, 25 μM, mean AUC as % of DMSO control, CsgA 10 μM, black plates, 1005 minutes
[3] = read-out: CsgA ThT Assay (10 μM CsgA) % Control AUC at 1005 minutes, 100 μM (activity range), CsgA 10 μM, black plates, 1005 minutes, class symbol
[4] = read-out: CsgA ThT Assay (10 μM CsgA) % Control AUC at 1005 minutes, 100 μM, mean AUC as % of DMSO control, CsgA 10 μM, black plates, 1005 minutes
[5] = read-out: CsgA ThT Assay (2 μM CsgA) % Control Bmax 25 μM, activity range, class symbol, CsgA 2 μM, white plates
[6] = read-out: CsgA ThT Assay (2 μM CsgA) % Control Bmax 25 μM, mean Bmax as percentage of DMSO control, CsgA 2 μM, white plates
[7] = read-out: CsgA ThT Assay (2 μM CsgA) % Control Bmax 100 μM, activity range, class symbol, CsgA 2 μM, white plates
[8] = read-out: CsgA ThT Assay (2 μM CsgA) % Control Bmax 100 μM, mean Bmax as percentage of DMSO control, CsgA 2 μM, white plates

T1 sequence (P28307 23-151): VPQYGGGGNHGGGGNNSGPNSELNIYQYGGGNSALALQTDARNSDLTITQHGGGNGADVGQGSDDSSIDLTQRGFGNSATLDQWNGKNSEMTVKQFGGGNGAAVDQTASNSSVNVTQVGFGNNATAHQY

| SMILES | remaining activity at 25 µM [1] [%] | remaining activity at 25 µM [2] [%] | remaining activity at 100 µM [3] [%] | remaining activity at 100 µM [4] [%] | remaining activity at 25 µM [5] [%] | remaining activity at 25 µM [6] [%] | remaining activity at 100 µM [7] [%] | remaining activity at 100 µM [8] [%] |
| --- | --- | --- | --- | --- | --- | --- | --- | --- |
| O=C(O)C1n2c(c(-c3cccc(C(F)(F)F)c3)c(Cc3cccc4ccccc34)nc2=O)SC12CCCC2 (centres unmarked) [Compound 053, 7′-(naphthalen-1-ylmethyl)-5′-oxo-8′-(3-(trifluoromethyl)phenyl)-3′H,5′H-spiro[cyclopentane-1,2′-thiazolo[3,2-c]pyrimidine]-3′-carboxylic acid] | 31 to 60 | 39 | 11 to 31 | 12 | – | – | – | – |
| O=C(O)C1CN(Cc2ccncc2)c2c(-c3cccc(C(F)(F)F)c3)c(Cc3cccc4ccccc34)c(Cl)c(=O)n21 (centres unmarked) [Compound 174, 6-chloro-7-(naphthalen-1-ylmethyl)-5-oxo-1-(pyridin-4-ylmethyl)-8-(3-(trifluoromethyl)phenyl)-1,2,3,5-tetrahydroimidazo[1,2-a]pyridine-3-carboxylic acid] | – | – | – | – | > 60 | 77 | 31 to 60 | 60 |
| NC(=O)c1c(Cc2cccc3ccccc23)c(-c2cccc(C(F)(F)F)c2)c2n(c1=O)C(C(=O)O)CN(C1CCCC1)S2(=O)=O (centres unmarked) [Compound 176, 7-carbamoyl-2-cyclopentyl-8-(naphthalen-1-ylmethyl)-6-oxo-9-(3-(trifluoromethyl)phenyl)-3,4-dihydro-2H,6H-pyrido[1,2-e][1,2,5]thiadiazine-4-carboxylic acid 1,1-dioxide] | – | – | – | – | 11 to 31 | 25 | 11 to 31 | 24 |
| O=C(O)C1CSc2c(-c3cccc(C(F)(F)F)c3)c(C(F)(F)c3cccc4ccccc34)cc(=O)n21 (centres unmarked) [Compound 073, 7-(difluoro(naphthalen-1-yl)methyl)-5-oxo-8-(3-(trifluoromethyl)phenyl)-2,3-dihydro-5H-thiazolo[3,2-a]pyridine-3-carboxylic acid] | 11 to 31 | 27 | > 60 | 97 | – | – | – | – |
| O=C(O)C1CN(Cc2cccnc2)c2c(-c3cccc(C(F)(F)F)c3)c(Cc3cccc4ccccc34)c(Cl)c(=O)n21 (centres unmarked) [Compound 169, 6-chloro-7-(naphthalen-1-ylmethyl)-5-oxo-1-(pyridin-3-ylmethyl)-8-(3-(trifluoromethyl)phenyl)-1,2,3,5-tetrahydroimidazo[1,2-a]pyridine-3-carboxylic acid] | – | – | – | – | > 60 | 77 | > 60 | 64 |
| Cc1c(Cc2cccc3ccccc23)c(-c2cccc(C(F)(F)F)c2)c2n(c1=O)C(C(=O)O)CN(C)S2(=O)=O (centres unmarked) [Compound 068, 2,7-dimethyl-8-(naphthalen-1-ylmethyl)-6-oxo-9-(3-(trifluoromethyl)phenyl)-3,4-dihydro-2H,6H-pyrido[1,2-e][1,2,5]thiadiazine-4-carboxylic acid 1,1-dioxide] | 31 to 60 | 43 | 11 to 31 | 23 | – | – | – | – |
| O=C(O)C1CN(CCC2CCCCC2)c2c(-c3cccc(C(F)(F)F)c3)c(Cc3cccc4ccccc34)c(Cl)c(=O)n21 (centres unmarked) [Compound 207, 6-chloro-1-(2-cyclohexylethyl)-7-(naphthalen-1-ylmethyl)-5-oxo-8-(3-(trifluoromethyl)phenyl)-1,2,3,5-tetrahydroimidazo[1,2-a]pyridine-3-carboxylic acid] | – | – | – | – | 31 to 60 | 51 | 11 to 31 | 20 |
| CNC(=O)CCCN1CC(C(=O)O)n2c(c(-c3cccc(C(F)(F)F)c3)c(Cc3cccc4ccccc34)cc2=O)S1(=O)=O (centres unmarked) [Compound 037, 2-(4-(methylamino)-4-oxobutyl)-8-(naphthalen-1-ylmethyl)-6-oxo-9-(3-(trifluoromethyl)phenyl)-3,4-dihydro-2H,6H-pyrido[1,2-e][1,2,5]thiadiazine-4-carboxylic acid 1,1-dioxide] | > 60 | 71 | 31 to 60 | 53 | – | – | – | – |
